Marks after values point to notes of the source that are not given here.
Legend:
Format in all cases: biochemical
ST3Gal-II [1] = biological target: T1, ST3Gal-II (Rattus norvegicus, UniProt Q11205); assay: Exchange of radiolabeled sialyl residues in bovine brain gangliosides (TLC); details: bovine brain ganglioside mixture, CMP-[9-3H]NeuAc or CMP-[14C]NeuAc
T1 construct: purchased Calbiochem
T1 sequence (Q11205 1-350): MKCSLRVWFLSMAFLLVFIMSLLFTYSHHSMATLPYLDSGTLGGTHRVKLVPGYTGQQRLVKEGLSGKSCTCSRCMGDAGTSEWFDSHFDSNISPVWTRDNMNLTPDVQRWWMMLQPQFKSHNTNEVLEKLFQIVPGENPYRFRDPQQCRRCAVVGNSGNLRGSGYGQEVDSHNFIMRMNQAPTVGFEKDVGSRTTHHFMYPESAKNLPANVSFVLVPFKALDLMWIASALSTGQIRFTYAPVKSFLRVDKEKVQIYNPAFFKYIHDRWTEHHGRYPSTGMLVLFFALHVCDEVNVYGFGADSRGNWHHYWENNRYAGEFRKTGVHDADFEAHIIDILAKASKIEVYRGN
Excerpt: Rat recombinant ST3Gal-II (α2,3(0)ST) was purchased from Calbiochem. Three different lots of ST3Gal-II purchased from Calbiochem and used in this study yielded similar results. CMP-NeuAc was obtained from Sigma. All enzymatic sialylation reactions were typically carried out in NaCa Codylate buffer pH6.0 in presence of enzyme acceptor CMP-[9-^3H]NeuAc or (NEN-DuPont) CMP[^14C]NeuAc. The concentration of total CMP-NeuAc was adjusted in individual reactions by supplementing with non-radioactive CMP-NeuAc. Products formed were separated using different chromatograph procedures. • a) Gel chromatography on Biogel P2 and P6 columns: A Biogel P2 column or Biogel P6 column (Fine Mesh; 1.0×116.0 cm) was used with 0.1 M pyridine acetate (pH5.4) as the eluent at room temperature. […] The first peak of radioactivity emerging in this void volume was collected and lyophilized to dryness. […]
Both [9-^3H] and [^14C] sialic acid labeled bovine brain ganglioside mixtures were subjected to TLC using CHcl3:CH3OH:0.2% aqueous CaCl2 (v/v 60:40:9) as the solvent system. The radioactivities were located on the TLC plates by scraping silica gel from 0.5 cm width segments of the TLC plates and then counting the radioactivity after soaking silica in 2.0 ml water by scintillation counting. […]

ST3Gal-III = biological target: T2, ST3Gal-III (Rattus norvegicus, UniProt Q02734); assay: Donor specificity for reverse sialylation, ST3Gal-III; details: 0.05 mM donor, 0.8 mM 5′-CMP
T2 construct: purchased Calbiochem
T2 sequence (Q02734 1-374): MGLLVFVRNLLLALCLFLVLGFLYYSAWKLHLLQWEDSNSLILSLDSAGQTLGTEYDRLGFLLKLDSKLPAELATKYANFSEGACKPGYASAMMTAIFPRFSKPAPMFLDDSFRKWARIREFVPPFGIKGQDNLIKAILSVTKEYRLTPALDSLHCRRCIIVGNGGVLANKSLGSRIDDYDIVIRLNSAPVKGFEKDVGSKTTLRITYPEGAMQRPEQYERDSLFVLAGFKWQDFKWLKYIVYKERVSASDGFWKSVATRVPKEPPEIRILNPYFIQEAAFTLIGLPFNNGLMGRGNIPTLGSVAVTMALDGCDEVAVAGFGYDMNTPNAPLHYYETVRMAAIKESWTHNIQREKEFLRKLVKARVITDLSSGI
Excerpt: (§1) We determined if reverse sialylation was more pronounced for ST3Gal-II in comparison to other sialyltransferases. Thus two other cloned rat sialyltransferases ST3Gal-III (or α2,3(N)ST) and ST6Gal-I (or α2,6(N)ST) (14) were examined. For these studies, we generated two molecules: i) [9-^3H]NeuAcα2,6Galβ1,4GlcNAcβ-O—Al (Al-Allyl) was made by the reaction of Galβ1,4GlcNAcβ-O—Al and CMP-[9-^3H]NeuAc in the presence of α2,6sialyltransferase, ST6Gal-I. (The radioactive product was separated using Biogel P2 column using a protocol similar to that described above.); and ii) [9-^3H]NeuAcα2,3Galβ1,4 GlcNAcβ-O—Al was similarly produced by reacting Galβ1,4GlcNAcβ-O—Al and CMP-[9-^3H]NeuAc in the presence of α2,3sialyltransferase ST3Gal-III. […] However, it is efficiently sialylated by both ST3Gal-III and ST6Gal-I. The ability of these two radiolabeled molecules ([14] and [15]) to act as [9-^3H]NeuAc donors was assayed in studies (Table IV) where the compounds were mixed with excess 5′-CMP, enzyme and acceptors with benzyl aglycan group. C18 cartridges were then used to measure the extent of [9-^3H]NeuAc transferred to acceptor using reaction scheme-II. Because all acceptors used in this table are efficiently sialylated by enzymes listed in the adjacent columns, these experiments essentially measure the amount of CMP-NeuAc formed using particular donor-enzyme pairs.
(§2) Thus, reverse sialylation takes place with ST3Gal-II.

ST3Gal-II [2] = biological target: T1, ST3Gal-II; assay: Donor specificity for reverse sialylation, ST3Gal-II; details: 0.05 mM donor, […] 5′-CMP, acceptor 5 mM D-Fuc(1,3GalNAc(-O-Bn, 3 mU ST3Gal-II)); zero = slightly below background
Excerpt: as §1, with “pairs. […]” for “pairs.”

ST6Gal-I = biological target: T3, ST6Gal-I (Rattus norvegicus, UniProt P13721); assay: Donor specificity for reverse sialylation, ST6Gal-I; details: 0.05 mM donor, 0.8 mM 5′-CMP, 3 mU ST6Gal-I
T3 construct: purchased Calbiochem
T3 sequence (P13721 1-403): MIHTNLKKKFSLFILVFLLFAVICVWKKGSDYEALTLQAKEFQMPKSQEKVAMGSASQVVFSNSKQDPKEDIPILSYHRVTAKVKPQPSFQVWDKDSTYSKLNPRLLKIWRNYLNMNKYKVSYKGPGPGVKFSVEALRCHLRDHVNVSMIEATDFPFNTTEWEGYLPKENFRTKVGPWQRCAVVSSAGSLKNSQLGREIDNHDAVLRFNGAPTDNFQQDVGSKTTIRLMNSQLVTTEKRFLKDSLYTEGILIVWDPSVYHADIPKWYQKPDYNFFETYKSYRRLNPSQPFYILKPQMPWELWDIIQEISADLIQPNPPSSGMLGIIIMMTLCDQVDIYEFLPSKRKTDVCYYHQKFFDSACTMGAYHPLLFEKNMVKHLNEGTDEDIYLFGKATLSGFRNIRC
Excerpt: as §1, §2

GD1a
Exchange of sialyl residues with CMP-sialic acid by ST3Gal-II (ST3Gal-II [1]): exchangeable

GT1b
Exchange of sialyl residues with CMP-sialic acid by ST3Gal-II (ST3Gal-II [1]): exchangeable

[9-^3H]NeuAcα2,3Galβ1,4 GlcNAcβ-O—Al [[15]]
Radiolabeled acceptor/product formed (ST3Gal-III; acceptor 2.5 mM Gal(1,4GlcNAc(1,3Gal(1,4GlcNAc(-O-Bn, 3 mU ST3Gal-III))))): 24 CPM
Radiolabeled acceptor/product formed (ST3Gal-III; acceptor 2.5 mM Galβ1,4GlcNAcβ1,6(Galβ1,3)GalNAcα-O-Bn, 3 mU ST3Gal-III): 27 CPM
Radiolabeled acceptor/product formed (ST3Gal-III; acceptor 2.5 mM Galβ1,4GlcNAcβ-O-Bn, 3 mU ST3Gal-III): 5 CPM
Radiolabeled acceptor/product formed (ST3Gal-II [2]): <0* CPM

[9-^3H]NeuAcα2,6Galβ1,4GlcNAcβ-O—Al [[14]]
Radiolabeled acceptor/product formed (ST6Gal-I; acceptor 2.5 mM Galβ1,4GlcNAcβ1,3Galβ1,4GlcNAcβ-O-Bn): 45 CPM
Radiolabeled acceptor/product formed (ST6Gal-I; acceptor 2.5 mM Galβ1,4GlcNAcβ1,6(Galβ1,3)GalNAcα-O-Bn): 36 CPM
Radiolabeled acceptor/product formed (ST6Gal-I; acceptor 2.5 mM Galβ1,4GlcNAcβ-O-Bn): 129 CPM
Radiolabeled acceptor/product formed (ST3Gal-II [2]): <0* CPM
